Results reported in patent US4753953A, “Pyridonecarboxylic acid derivatives and antibacterial pharmaceutical compositions thereof” (priority 1985, dated 1988).
In brackets after ≈: the same amount, converted by molar mass. Like-named read-outs stand apart in the source and are kept apart here.

Tests used:
S. pyogenes IID 692 = experiment: MIC, in vitro antibacterial activity (standard strains); format: cell-based, Streptococcus pyogenes; details: 10^6 cells/ml, Gram +
[1] = system: Escherichia coli NIHJ JC-2; experiment: as above; format: cell-based; details: 10^6 cells/ml, Gram -
S. epidermidis IID 866 = experiment: as above; format: cell-based; details: 10^6 cells/ml, Gram +
[2] = system: Propionibacterium acens 11828; experiment: as above; format: cell-based; details: 10^6 cells/ml; Gram +
C. ramosum = experiment: as above; format: cell-based; details: 10^6 cells/ml, Gram +
K. pneumoniae 1-220S = experiment: as above; format: cell-based, Klebsiella pneumoniae; details: 10^6 cells/ml, Gram -
E. faecalis IID 682 = experiment: as above; format: cell-based
[3] = system: Citrobacter freundii IID 976; experiment: as above; format: cell-based; details: 10^6 cells/ml, Gram -
[4] = system: Yersinia enterocolitica IID 981; experiment: as above; format: cell-based; details: 10^6 cells/ml, Gram -
[5] = system: Bacillus subtilis PCI 219; experiment: as above; format: cell-based; details: 10^6 cells/ml, Gram +
[6] = system: Acinetobacter anitratus IID 876; experiment: as above; format: cell-based
Pst. micros UPI 5464-1 = experiment: as above; format: cell-based; details: 10^6 cells/ml; Gram +
S. aureus Smith = experiment: as above; format: cell-based, Staphylococcus aureus; details: 10^6 cells/ml, Gram +
[7] = system: Veillonella parvula KYA 10790; experiment: as above; format: cell-based; details: 10^6 cells/ml; Gram -
[8] = system: Klebsiella pneumoniae KY(GN)6445; experiment: as above; format: cell-based; details: 10^6 cells/ml, Gram -
F. varium KYA 8501 = experiment: as above; format: cell-based; details: 10^6 cells/ml, Gram -
P. aeruginosa IID 1210 = experiment: as above; format: cell-based, Pseudomonas aeruginosa; details: 10^6 cells/ml, Gram -
P. aeruginosa IFO 12689 = experiment: as above; format: cell-based, Pseudomonas aeruginosa; details: 10^6 cells/ml, Gram -
C. perfringens KYA 13123 = experiment: microbe, parasite or virus in culture; format: cell-based; details: 10^6 cells/ml; Gram +
F. necrophorum S-45 = experiment: MIC, in vitro antibacterial activity (standard strains); format: cell-based; details: 10^6 cells/ml; Gram -
[9] = system: Staphylococcus aureus 209 P; experiment: as above; format: cell-based; details: 10^6 cells/ml, Gram +
[10] = system: Peptostreptococcus anaerobius KYA 27337; experiment: as above; format: cell-based; details: 10^6 cells/ml; Gram +
S. pneumoniae IID 552 = experiment: as above; format: cell-based; details: 10^6 cells/ml, Gram +
[11] = system: Serratia marcescens IID 618; experiment: as above; format: cell-based; details: 10^6 cells/ml, Gram -
[12] = system: Proteus vulgaris IFO 3167; experiment: as above; format: cell-based; details: 10^6 cells/ml, Gram -
B. fragilis 25285 = experiment: as above; format: cell-based, Bacteroides fragilis; details: 10^6 cells/ml, Gram -
P. maltophilia GIFU 2491 = experiment: as above; format: cell-based; details: 10^6 cells/ml, Gram -
[13] = system: Streptococcus pyogenes (S-8); experiment: as above; format: cell-based
[14] = system: S. aureus IID 670 (Terajima); experiment: as above; format: cell-based, Staphylococcus aureus
B. fragilis 0558 = experiment: as above; format: cell-based, Bacteroides fragilis; details: 10^6 cells/ml, Gram -
B. vulgatus KYA 29327 = experiment: as above; format: cell-based; details: 10^6 cells/ml; Gram -
P. mirabilis IID 994 = experiment: as above; format: cell-based; details: 10^6 cells/ml, Gram -
E. coli ATCC 10536 = experiment: as above; format: cell-based, Escherichia coli; details: 10^6 cells/ml, Gram -
[15] = system: Bacteroides fragilis GM 7000; experiment: as above; format: cell-based; details: 10^6 cells/ml, Gram -
E. limosum KYA 8486 = experiment: as above; format: cell-based; details: 10^6 cells/ml; Gram +
Shigella sonnei IID 969 = experiment: as above; format: cell-based; details: 10^6 cells/ml, Gram -
Description: Minimal inhibitory concentrations (MICs) were determined in accordance with the method recommended by Japan Society of Chemotherapy.

[16] = system: Fusobacterium mortiferum 4249; experiment: as above; format: cell-based; details: 10^6 cells/ml; Gram -
B. distasonis 8503 = experiment: as above; format: cell-based; details: 10^6 cells/ml; Gram -
[17] = system: Pseudomonas aeruginosa V-1; experiment: as above; format: cell-based; details: 10^6 cells/ml, Gram -
[18] = system: B. thetaiotaomicron (0661); experiment: as above; format: cell-based; details: 10^6 cells/ml; Gram -
[19] = system: Peptococcus magnus KY 017; experiment: as above; format: cell-based; details: 10^6 cells/ml; Gram +
[20] = system: Enterobacter cloacae IID 977; experiment: as above; format: cell-based; details: 10^6 cells/ml, Gram -
[21] = system: Alcaligenes faecalis 0114002; experiment: as above; format: cell-based
P. cepacia GIFU 518 = experiment: as above; format: cell-based; details: 10^6 cells/ml; Gram -
[22] = system: Morganella morganii IID 602; experiment: as above; format: cell-based; details: 10^6 cells/ml, Gram -
[23] = system: Eubacterium lentum GAI 5242; experiment: as above; format: cell-based; details: 10^6 cells/ml; Gram +
E. coli ML 4707 = experiment: as above; format: cell-based, Escherichia coli; details: Gram -, Table 1
[24] = system: Salmonella enteritidis IID 604; experiment: as above; format: cell-based; details: 10^6 cells/ml, Gram -
[25] = system: Clostridium difficile I-E; experiment: as above; format: cell-based; details: Clostridioides difficile; 10^6 cells/ml; Gram +

Work on “7-(3-Aminomethyl-4-methyl-1-pyrrolidinyl)-1-cyclopropyl-6,8-difluoro-1,4-dihydro-4-oxo-3-quinolinecarboxylic acid [Example 2]” yielded an MIC (S. pyogenes IID 692) of 0.05 µg/mL, an MIC [1] of 0.025 µg/mL and an MIC (S. epidermidis IID 866) of 0.025 µg/mL. It also gave an MIC [2] of 0.39 µg/mL, an MIC (C. ramosum) of 0.78 µg/mL and an MIC (K. pneumoniae 1-220S) of 0.05 µg/mL. The MIC (E. faecalis IID 682; 10^6 cells/ml, Gram +) was 0.10 µg/mL, the MIC [3] was 0.05 µg/mL and the MIC [4] was 0.05 µg/mL. The MIC [5] was 0.0125 µg/mL, the MIC ([6]; 10^6 cells/ml, Gram -) was 0.05 µg/mL and the MIC (Pst. micros UPI 5464-1) was 0.39 µg/mL. For the same molecule, the MIC (S. aureus Smith) was 0.025 µg/mL, the MIC [7] was 0.39 µg/mL and the MIC [8] was 0.05 µg/mL. The MIC (F. varium KYA 8501) was 0.78 µg/mL, the MIC (P. aeruginosa IID 1210) was 0.78 µg/mL and the MIC (P. aeruginosa IFO 12689) was 0.78 µg/mL. It also gave an MIC (C. perfringens KYA 13123) of 0.20 µg/mL, an MIC (F. necrophorum S-45) of 0.39 µg/mL and an MIC [9] of 0.025 µg/mL. The MIC [10] was 0.10 µg/mL, the MIC (S. pneumoniae IID 552) was 0.05 µg/mL and the MIC [11] was 0.10 µg/mL. The MIC [12] was 0.05 µg/mL, the MIC (B. fragilis 25285) was 0.39 µg/mL and the MIC (P. maltophilia GIFU 2491) was 0.20 µg/mL. For the same molecule, the MIC ([13]; 10^6 cells/ml, Gram +) was 0.05 µg/mL, the MIC ([14]; 10^6 cells/ml, Gram +) was 0.025 µg/mL and the MIC (B. fragilis 0558) was 0.39 µg/mL. It also gave an MIC (B. vulgatus KYA 29327) of 0.78 µg/mL, an MIC (P. mirabilis IID 994) of 0.05 µg/mL and an MIC (E. coli ATCC 10536) of 0.025 µg/mL. The MIC [15] was 0.78 µg/mL, the MIC (E. limosum KYA 8486) was 1.56 µg/mL and the MIC (Shigella sonnei IID 969) was 0.025 µg/mL. It also gave an MIC [16] of 0.39 µg/mL, an MIC (B. distasonis 8503) of 3.13 µg/mL and an MIC [17] of 0.10 µg/mL. For the same molecule, the MIC [18] was 0.78 µg/mL, the MIC [19] was 0.20 µg/mL and the MIC [20] was 0.05 µg/mL. The MIC ([21]; 10^6 cells/ml, Gram -) was 0.20 µg/mL, the MIC (P. cepacia GIFU 518) was 0.39 µg/mL and the MIC [22] was 0.10 µg/mL. It also gave an MIC [23] of 0.78 µg/mL, an MIC (E. coli ML 4707; 10^6 cells/ml) of 0.025 µg/mL and an MIC [24] of 0.05 µg/mL.
Molecule CCn1cc(C(=O)O)c(=O)c2cc(F)c(N3CCNCC3)cc21 [NFLX, norfloxacin, reference compound] has an MIC (S. pyogenes IID 692; Streptococcus pyogenes, IID692, read-out: MIC) of 3.13 µg/mL (≈ 9.8 µM), an MIC ([1]; Escherichia coli, NIHJJC2, read-out: MIC) of 0.0563 µg/mL (≈ 0.176 µM) and an MIC (S. epidermidis IID 866; Staphylococcus epidermidis, IID866, read-out: MIC) of 0.78 µg/mL (≈ 2.44 µM). The MIC (C. ramosum; Thomasclavelia ramosa, read-out: MIC) was 50 µg/mL (≈ 157 µM), the MIC (K. pneumoniae 1-220S; Klebsiella pneumoniae, 1220S, read-out: MIC) was 0.1 µg/mL (≈ 0.313 µM) and the MIC (E. faecalis IID 682; Enterococcus faecalis, IID682) was 1.56 µg/mL (≈ 4.89 µM). The MIC ([3]; Citrobacter freundii, IID976, read-out: MIC) was 0.05 µg/mL (≈ 0.157 µM), the MIC ([4]; Yersinia enterocolitica, IID981, read-out: MIC) was 0.1 µg/mL (≈ 0.313 µM) and the MIC ([5]; Bacillus subtilis, PCI219, read-out: MIC) was 0.1 µg/mL (≈ 0.313 µM). For the same molecule, the MIC ([6]; Acinetobacter calcoaceticus, IID876) was 1.56 µg/mL (≈ 4.89 µM), the MIC (S. aureus Smith; Staphylococcus aureus, read-out: MIC) was 0.78 µg/mL (≈ 2.44 µM) and the MIC ([8]; Klebsiella pneumoniae, read-out: MIC) was 0.05 µg/mL (≈ 0.157 µM). It also gave an MIC (F. varium KYA 8501; Fusobacterium varium, KYA8501, read-out: MIC) of 100 µg/mL (≈ 313 µM), an MIC (P. aeruginosa IID 1210; Pseudomonas aeruginosa, IID1210, read-out: MIC) of 3.13 µg/mL (≈ 9.8 µM) and an MIC (P. aeruginosa IFO 12689; Pseudomonas aeruginosa, IFO12689, read-out: MIC) of 0.78 µg/mL (≈ 2.44 µM). The MIC ([9]; Staphylococcus aureus, 209P, read-out: MIC) was 0.78 µg/mL (≈ 2.44 µM), the MIC (S. pneumoniae IID 552; Streptococcus pneumoniae, IID552, read-out: MIC) was 3.13 µg/mL (≈ 9.8 µM) and the MIC ([11]; Serratia marcescens, IID618, read-out: MIC) was 0.05 µg/mL (≈ 0.157 µM). It also gave an MIC ([12]; Proteus vulgaris, IFO3167, read-out: MIC) of 0.05 µg/mL (≈ 0.157 µM), an MIC (B. fragilis 25285; Bacteroides fragilis, 25285, read-out: MIC) of 25 µg/mL (≈ 78.3 µM) and an MIC (P. maltophilia GIFU 2491; Stenotrophomonas maltophilia, GIFU2491, read-out: MIC) of 6.25 µg/mL (≈ 19.6 µM). It also gave an MIC ([13]; Streptococcus pyogenes) of 1.56 µg/mL (≈ 4.89 µM), an MIC ([14]; Staphylococcus aureus, IID670) of 1.56 µg/mL (≈ 4.89 µM) and an MIC (B. fragilis 0558; Bacteroides fragilis, 0558, read-out: MIC) of 25 µg/mL (≈ 78.3 µM). The MIC (P. mirabilis IID 994; Proteus mirabilis, IID994, read-out: MIC) was 0.05 µg/mL (≈ 0.157 µM), the MIC (E. coli ATCC 10536; Escherichia coli, ATCC10536, read-out: MIC) was 0.05 µg/mL (≈ 0.157 µM) and the MIC ([15]; Bacteroides fragilis, GM7000, read-out: MIC) was 25 µg/mL (≈ 78.3 µM). The MIC (Shigella sonnei IID 969; Shigella sonnei, IID969, read-out: MIC) was 0.05 µg/mL (≈ 0.157 µM), the MIC ([17]; Pseudomonas aeruginosa, V1, read-out: MIC) was 0.39 µg/mL (≈ 1.22 µM) and the MIC ([20]; Enterobacter cloacae, IID977, read-out: MIC) was 0.1 µg/mL (≈ 0.313 µM). It also gave an MIC ([21]; Alcaligenes faecalis, 0114002) of 1.56 µg/mL (≈ 4.89 µM), an MIC ([22]; Morganella morganii, IID602, read-out: MIC) of 0.05 µg/mL (≈ 0.157 µM) and an MIC [25] of 50 µg/mL. The MIC (E. coli ML 4707; Escherichia coli, ML4707, 10^6 cells/ml, read-out: MIC) was 0.05 µg/mL (≈ 0.157 µM) and the MIC ([24]; Salmonella enterica, read-out: MIC) was 0.05 µg/mL (≈ 0.157 µM).
